Measured values: US20250002527A1, “STEROID COMPOUND AND CONJUGATE THEREOF” (DUALITY BIOLOGICS (SUZHOU) CO., LTD., priority 2021, published 2025)
Where “and” joins values, the source holds several entries; their conditions need not be identical. Identical values can stand only once.

What was measured:
Assay type in all cases: cell-based
GR = target: T1, GR (Homo sapiens, UniProt P04150); experiment: GR luciferase reporter gene elution experiment; set-up: concentration or dose not given beside the values; conditions: then 24 hours
T1 construct: expressed in transfected cells; host or cells: HEK293
T1 sequence (P04150 1-777): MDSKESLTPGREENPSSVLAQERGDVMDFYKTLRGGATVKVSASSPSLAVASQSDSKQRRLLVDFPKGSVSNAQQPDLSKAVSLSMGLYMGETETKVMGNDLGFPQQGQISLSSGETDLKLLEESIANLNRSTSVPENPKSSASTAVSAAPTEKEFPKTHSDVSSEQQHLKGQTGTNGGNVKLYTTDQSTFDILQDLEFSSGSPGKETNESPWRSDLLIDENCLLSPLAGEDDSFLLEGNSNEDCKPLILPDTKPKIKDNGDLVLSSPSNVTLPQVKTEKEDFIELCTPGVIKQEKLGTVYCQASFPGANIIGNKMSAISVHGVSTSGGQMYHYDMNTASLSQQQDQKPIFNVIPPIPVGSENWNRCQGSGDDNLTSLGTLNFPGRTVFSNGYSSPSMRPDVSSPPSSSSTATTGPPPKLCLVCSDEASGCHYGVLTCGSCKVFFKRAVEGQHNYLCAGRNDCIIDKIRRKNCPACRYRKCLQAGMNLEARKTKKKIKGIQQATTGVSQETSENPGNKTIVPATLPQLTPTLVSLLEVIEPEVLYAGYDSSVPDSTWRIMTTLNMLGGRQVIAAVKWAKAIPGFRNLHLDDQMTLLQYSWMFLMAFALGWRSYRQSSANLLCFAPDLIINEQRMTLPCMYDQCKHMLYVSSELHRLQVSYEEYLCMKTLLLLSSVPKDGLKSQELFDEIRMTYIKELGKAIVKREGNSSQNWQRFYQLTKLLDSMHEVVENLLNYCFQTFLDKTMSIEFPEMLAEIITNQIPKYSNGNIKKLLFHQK
Procedure: The compounds of the present application were evaluated for their ability to continue activation upon binding to GR.
(§1) HEK293 cells were cultured in DMEM+10% FBS medium in a carbon dioxide incubator humidified at 37° C. at 5% carbon dioxide.
(§2) • 1) HEK293 cells were trypsinized, and the HEK293 cell resuspension was adjusted to 200,000 cell/mL in medium (96 well plate: 100 μL/well). • 2) Transfection reagent mixtures were prepared according to the table below, mixed well and left at room temperature for 20 minutes.
(§3) • 3) The prepared transfection mixtures were added to 10 mL of the cell density-adjusted resuspension, mixed well by turning the mixtures upside down, and seeded into a 96-well plate at a volume of 100 μL/well. • 4) The 96-well plate was incubated in a humidified incubator at 37° C. and 5% carbon dioxide for 24 hours.
(§4) The test plate was detected using the Dual-Glo Luciferase Assay System kit from Promega, and the fluorescence signal of Firefly Luciferase and the fluorescence signal of Renilla Luciferase were read using Enspire, respectively.
• 1) The final measurement value was a normalized value “F/R” obtained by dividing the Firefly Luciferase fluorescent signal by the Renilla Luciferase fluorescent signal. • 2) The data were copied and pasted into Excel, and the activation rate was obtained through an equation.
[formula] • 3) The data were imported into MS Excel and subjected to curve fitting by using XLFit excel add-in version 5.4.0.8 to obtain an EC50 value.
(§5) Y is the agonism and X is the concentration of the compound.

MR = target: T2, MR (Homo sapiens, UniProt P08235); experiment: MR luciferase reporter gene experiment; conditions: HEK293 transfected with pBIND-MR
T2 construct: expressed in transfected cells; host or cells: HEK293
T2 sequence (P08235 1-984): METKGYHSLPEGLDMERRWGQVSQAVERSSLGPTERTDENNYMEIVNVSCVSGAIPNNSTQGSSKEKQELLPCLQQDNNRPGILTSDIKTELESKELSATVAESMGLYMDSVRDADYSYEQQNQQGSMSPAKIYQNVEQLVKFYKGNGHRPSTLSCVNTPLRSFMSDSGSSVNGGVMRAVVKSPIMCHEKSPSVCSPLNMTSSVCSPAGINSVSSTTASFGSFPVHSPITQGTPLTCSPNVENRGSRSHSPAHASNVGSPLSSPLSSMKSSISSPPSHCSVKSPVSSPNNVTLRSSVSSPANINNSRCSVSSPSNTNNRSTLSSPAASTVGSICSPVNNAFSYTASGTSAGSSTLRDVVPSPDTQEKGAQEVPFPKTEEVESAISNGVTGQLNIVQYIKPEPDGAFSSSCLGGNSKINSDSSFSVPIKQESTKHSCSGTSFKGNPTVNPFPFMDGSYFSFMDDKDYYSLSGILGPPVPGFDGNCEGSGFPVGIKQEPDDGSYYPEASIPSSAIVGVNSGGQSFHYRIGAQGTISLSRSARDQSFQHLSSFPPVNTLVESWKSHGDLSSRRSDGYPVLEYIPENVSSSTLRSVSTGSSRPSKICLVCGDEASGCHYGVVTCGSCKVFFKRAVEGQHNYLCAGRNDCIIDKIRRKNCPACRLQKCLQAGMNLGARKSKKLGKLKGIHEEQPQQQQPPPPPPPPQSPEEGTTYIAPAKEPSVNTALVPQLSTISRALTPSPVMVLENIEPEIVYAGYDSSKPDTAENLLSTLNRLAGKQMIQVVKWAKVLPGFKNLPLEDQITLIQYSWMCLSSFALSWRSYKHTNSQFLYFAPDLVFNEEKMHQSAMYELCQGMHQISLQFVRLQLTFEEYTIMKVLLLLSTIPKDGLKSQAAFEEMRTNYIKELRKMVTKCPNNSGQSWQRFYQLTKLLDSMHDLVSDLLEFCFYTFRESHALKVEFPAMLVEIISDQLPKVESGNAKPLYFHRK
Procedure: as §1, §2, §3, §4, §5

ERα = target: T3, ERα (Homo sapiens, UniProt P03372); experiment: ERα luciferase reporter gene experiment; conditions: HEK293 transfected with pBIND-ERα
T3 sequence (P03372 311-547 limits assumed): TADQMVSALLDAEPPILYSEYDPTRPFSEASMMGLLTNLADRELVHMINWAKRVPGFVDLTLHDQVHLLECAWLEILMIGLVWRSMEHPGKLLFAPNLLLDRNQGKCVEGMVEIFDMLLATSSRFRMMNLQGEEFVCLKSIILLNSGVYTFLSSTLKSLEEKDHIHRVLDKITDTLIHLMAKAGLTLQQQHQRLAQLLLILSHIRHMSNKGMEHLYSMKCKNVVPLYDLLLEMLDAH
Procedure: as §1, §2, §3, §4, §5

Question: C[C@]12C=CC(=O)C=C1CC[C@@H]1[C@@H]2[C@@H](O)C[C@@]2(C)[C@H]1C[C@H]1O[C@@H](c3ccc(Cc4ccc(CO)cc4)cc3)O[C@]12C(=O)CO [Compound 4] was tested. Which “Wash off time (Rate of activation %) 15 min” value (GR; wash off after 15 min) did it give?
Answer: 127.6% and 129.6%

Question: What about the “Wash off time (Rate of activation %) 30 min” value (GR; wash off after 30 min) of the same molecule?
Answer: 127.0% and 128.5%

Question: And the “Wash off time (Rate of activation %) 1 h” value (GR; wash off after 1 h)?
Answer: 164.6% and 106.6%

Question: What about the “Wash off time (Rate of activation %) 2 h” value (GR; wash off after 2 h) of the same molecule?
Answer: 131.3% and 124.8%

Question: And the “Wash off time (Rate of activation %) 4 h” value (GR; wash off after 4 h)?
Answer: 139.9% and 125.3%

Question: And the EC50 (MR)?
Answer: > 1000 nM

Question: What about the EC50 (ERα) of the same molecule?
Answer: > 1000 nM
